Test results taken from patent US20220363689A1, “INHIBITOR OF BTK AND MUTANTS THEREOF” (Newave Pharmaceutical Inc., priority 2019, published 2022).
Like-named read-outs stand apart in the source and are kept apart here.

Tests used:
TEC = target: T1, TEC (Homo sapiens, UniProt P42680); assay: Caliper-based kinase assay, off-target TEC; type: biochemical; conditions: Cys-481 homologous kinase panel
T1 sequence (P42680 1-631): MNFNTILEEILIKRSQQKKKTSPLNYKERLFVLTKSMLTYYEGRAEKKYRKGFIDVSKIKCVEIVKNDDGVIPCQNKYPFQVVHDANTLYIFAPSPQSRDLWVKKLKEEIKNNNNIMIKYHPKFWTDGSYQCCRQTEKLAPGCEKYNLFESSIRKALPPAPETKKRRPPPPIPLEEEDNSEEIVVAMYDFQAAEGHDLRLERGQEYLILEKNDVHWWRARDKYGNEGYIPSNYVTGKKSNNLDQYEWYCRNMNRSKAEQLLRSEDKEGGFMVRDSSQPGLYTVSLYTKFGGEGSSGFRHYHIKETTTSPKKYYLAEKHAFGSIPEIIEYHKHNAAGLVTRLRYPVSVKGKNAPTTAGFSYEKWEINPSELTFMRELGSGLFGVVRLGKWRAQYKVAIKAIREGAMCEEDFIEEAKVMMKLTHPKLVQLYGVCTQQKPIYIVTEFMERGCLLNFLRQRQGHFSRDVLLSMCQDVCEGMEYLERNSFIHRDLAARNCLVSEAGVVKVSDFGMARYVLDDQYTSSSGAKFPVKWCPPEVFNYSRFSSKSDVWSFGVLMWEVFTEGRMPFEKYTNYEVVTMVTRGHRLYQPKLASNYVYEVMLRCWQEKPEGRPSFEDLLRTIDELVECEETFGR
From the text: (§1) A Caliper-based kinase assay (Caliper Life Sciences, Hopkinton, Mass.) was used to measure inhibition of kinase activity of compounds of the present disclosure. […]

[1] = system: liver cancer cell line HepG2; assay: HepG2 in vitro liver toxicity assay (ATPlite); type: cell-based; conditions: Homo sapiens, HepG2, about 72 hours incubation
Method: (§2) Cell antiproliferation is assayed by PerkinElmer ATPlite™ Luminescence Assay System. Briefly, the liver cancer cell line HepG2 are plated at a density of about 1×10^4 cells per well in Costar 96-well plates, and are incubated with different concentrations of compounds for about 72 hours in medium supplemented with 5% FBS. One lyophilized substrate solution vial is then reconstituted by adding 5 mL of substrate buffer solution, and is agitated gently until the solution is homogeneous. About 50 μL of mammalian cell lysis solution is added to 100 μL of cell suspension per well of a microplate, and the plate is shaken for about five minutes in an orbital shaker at −700 rpm. This procedure is used to lyse the cells and to stabilize the ATP. Next, 50 μL substrate solution is added to the wells and microplate is shaken for five minutes in an orbital shaker at −700 rpm. Finally, the luminescence is measured by a PerkinElmer TopCount® Microplate Scintillation Counter. Such assays, carried out with a range of doses of test compounds, allow the determination of the cellular anti-antiproliferative IC50 of the compounds of the present invention.

HER4 = HER4 (Homo sapiens, UniProt Q15303); assay: Caliper-based kinase assay, off-target HER4; type: biochemical; conditions: Cys-481 homologous kinase panel
Sequence of HER4 (Q15303 26-1308): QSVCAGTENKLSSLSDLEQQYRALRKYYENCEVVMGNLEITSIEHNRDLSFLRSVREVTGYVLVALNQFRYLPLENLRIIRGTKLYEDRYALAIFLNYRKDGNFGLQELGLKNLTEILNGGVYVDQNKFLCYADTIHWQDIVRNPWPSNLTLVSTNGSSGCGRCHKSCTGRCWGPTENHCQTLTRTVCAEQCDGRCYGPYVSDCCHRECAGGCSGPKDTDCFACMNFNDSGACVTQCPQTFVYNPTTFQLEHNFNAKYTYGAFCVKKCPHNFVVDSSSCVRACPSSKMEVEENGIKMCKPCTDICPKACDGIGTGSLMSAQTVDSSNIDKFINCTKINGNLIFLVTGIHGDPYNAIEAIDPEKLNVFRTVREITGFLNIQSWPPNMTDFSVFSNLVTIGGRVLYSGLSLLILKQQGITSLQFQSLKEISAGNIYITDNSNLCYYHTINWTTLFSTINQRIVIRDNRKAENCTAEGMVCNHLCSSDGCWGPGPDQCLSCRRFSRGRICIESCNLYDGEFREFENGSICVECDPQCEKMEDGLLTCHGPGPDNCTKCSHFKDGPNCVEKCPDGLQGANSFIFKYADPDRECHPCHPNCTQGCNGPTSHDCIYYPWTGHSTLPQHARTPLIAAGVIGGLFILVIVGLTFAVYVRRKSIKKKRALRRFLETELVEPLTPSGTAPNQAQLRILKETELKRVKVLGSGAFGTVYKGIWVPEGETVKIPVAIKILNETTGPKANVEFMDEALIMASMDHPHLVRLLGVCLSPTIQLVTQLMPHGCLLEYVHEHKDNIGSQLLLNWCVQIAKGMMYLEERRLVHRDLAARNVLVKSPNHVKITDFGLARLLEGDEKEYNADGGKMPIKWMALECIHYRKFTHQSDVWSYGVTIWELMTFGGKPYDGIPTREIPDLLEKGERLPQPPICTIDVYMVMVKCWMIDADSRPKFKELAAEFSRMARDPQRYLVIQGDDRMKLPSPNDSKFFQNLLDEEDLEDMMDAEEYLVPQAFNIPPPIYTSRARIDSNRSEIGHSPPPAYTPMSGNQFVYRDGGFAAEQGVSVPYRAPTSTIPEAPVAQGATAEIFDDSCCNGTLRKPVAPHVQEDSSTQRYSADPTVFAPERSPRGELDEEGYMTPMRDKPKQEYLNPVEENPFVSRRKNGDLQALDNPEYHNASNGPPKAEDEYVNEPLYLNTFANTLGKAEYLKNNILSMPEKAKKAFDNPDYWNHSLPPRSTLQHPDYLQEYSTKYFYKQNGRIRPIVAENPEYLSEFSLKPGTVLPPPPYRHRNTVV
From the text: as §1

human primary hepatocyte = assay: Human primary hepatocyte cytotoxicity (ATPlite); type: cell-based; conditions: about 72 hours incubation
Method: as §2, with “viability assay” for “antiproliferation”, “human primary hepatocyte” for “liver cancer cell line HepG2”

TXK = target: T2, TXK (Homo sapiens, UniProt P42681); assay: Caliper-based kinase assay, off-target TXK; type: biochemical; conditions: Cys-481 homologous kinase panel
T2 sequence (P42681 1-527): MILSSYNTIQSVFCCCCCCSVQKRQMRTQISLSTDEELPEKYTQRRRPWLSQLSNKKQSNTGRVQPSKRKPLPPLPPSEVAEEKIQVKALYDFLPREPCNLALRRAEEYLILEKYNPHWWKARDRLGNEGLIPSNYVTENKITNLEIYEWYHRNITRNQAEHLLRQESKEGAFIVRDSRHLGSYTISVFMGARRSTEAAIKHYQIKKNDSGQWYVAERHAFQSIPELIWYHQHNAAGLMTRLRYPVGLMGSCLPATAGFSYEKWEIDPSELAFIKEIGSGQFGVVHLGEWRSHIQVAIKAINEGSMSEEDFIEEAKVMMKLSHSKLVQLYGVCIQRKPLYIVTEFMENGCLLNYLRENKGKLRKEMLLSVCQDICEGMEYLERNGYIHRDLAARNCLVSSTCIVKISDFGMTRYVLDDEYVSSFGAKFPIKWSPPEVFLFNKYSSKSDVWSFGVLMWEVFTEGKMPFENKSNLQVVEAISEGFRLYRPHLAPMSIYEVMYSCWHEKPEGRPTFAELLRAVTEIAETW
From the text: as §1

EGFR = EGFR (Homo sapiens, UniProt P00533); assay: Caliper-based kinase assay, off-target EGFR; type: biochemical; conditions: Cys-481 homologous kinase panel
Sequence of EGFR (P00533 25-1210): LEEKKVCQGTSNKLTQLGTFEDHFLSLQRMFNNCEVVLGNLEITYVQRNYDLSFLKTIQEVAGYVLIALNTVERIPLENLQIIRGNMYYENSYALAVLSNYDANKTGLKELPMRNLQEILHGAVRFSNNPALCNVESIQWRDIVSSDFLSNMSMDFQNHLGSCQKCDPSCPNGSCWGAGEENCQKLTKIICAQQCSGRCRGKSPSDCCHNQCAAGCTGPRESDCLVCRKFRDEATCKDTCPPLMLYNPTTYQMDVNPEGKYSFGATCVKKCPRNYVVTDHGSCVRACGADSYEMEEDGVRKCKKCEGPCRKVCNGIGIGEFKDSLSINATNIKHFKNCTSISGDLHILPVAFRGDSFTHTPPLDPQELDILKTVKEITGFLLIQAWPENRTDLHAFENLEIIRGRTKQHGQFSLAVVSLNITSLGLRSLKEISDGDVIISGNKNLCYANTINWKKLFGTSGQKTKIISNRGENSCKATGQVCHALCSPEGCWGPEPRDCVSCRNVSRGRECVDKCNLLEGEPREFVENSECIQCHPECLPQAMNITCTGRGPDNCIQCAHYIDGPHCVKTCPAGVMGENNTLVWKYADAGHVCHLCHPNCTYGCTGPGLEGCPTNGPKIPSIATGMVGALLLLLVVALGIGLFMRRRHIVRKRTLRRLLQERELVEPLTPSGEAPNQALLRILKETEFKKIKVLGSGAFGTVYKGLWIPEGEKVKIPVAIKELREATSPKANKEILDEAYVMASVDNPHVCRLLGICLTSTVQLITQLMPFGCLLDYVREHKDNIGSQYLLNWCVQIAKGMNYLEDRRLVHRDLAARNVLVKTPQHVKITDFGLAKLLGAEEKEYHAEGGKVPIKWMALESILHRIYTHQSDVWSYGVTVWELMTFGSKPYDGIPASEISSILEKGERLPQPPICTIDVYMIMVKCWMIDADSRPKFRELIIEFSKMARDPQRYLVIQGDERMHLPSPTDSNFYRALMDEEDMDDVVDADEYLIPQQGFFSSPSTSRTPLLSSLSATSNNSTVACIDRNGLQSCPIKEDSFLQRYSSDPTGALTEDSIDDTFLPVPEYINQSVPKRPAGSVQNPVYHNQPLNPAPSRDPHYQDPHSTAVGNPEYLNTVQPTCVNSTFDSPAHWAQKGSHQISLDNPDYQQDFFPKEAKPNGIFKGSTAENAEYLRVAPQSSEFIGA
From the text: as §1

BLK = BLK (Homo sapiens, UniProt P51451); assay: Caliper-based kinase assay, off-target BLK; type: biochemical; conditions: Cys-481 homologous kinase panel
Sequence of BLK (P51451 whole entry): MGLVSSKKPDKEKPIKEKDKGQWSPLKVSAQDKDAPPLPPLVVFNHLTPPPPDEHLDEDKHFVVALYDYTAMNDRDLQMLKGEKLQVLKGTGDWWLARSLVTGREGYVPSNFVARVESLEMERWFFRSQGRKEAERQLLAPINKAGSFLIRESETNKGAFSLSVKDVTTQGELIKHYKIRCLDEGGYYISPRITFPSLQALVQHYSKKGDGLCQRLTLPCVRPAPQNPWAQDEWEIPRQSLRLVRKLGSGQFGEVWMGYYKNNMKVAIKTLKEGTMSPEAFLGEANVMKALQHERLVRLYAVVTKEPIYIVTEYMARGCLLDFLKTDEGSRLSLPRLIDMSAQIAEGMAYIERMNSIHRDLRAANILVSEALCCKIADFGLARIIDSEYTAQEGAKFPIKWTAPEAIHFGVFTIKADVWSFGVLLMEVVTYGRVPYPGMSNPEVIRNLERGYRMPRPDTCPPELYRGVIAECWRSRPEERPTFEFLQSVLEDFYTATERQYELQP
From the text: as §1

HER2 = HER2 (Homo sapiens, UniProt P04626); assay: Caliper-based kinase assay, off-target HER2; type: biochemical; conditions: Cys-481 homologous kinase panel
Sequence of HER2 (P04626 23-1255): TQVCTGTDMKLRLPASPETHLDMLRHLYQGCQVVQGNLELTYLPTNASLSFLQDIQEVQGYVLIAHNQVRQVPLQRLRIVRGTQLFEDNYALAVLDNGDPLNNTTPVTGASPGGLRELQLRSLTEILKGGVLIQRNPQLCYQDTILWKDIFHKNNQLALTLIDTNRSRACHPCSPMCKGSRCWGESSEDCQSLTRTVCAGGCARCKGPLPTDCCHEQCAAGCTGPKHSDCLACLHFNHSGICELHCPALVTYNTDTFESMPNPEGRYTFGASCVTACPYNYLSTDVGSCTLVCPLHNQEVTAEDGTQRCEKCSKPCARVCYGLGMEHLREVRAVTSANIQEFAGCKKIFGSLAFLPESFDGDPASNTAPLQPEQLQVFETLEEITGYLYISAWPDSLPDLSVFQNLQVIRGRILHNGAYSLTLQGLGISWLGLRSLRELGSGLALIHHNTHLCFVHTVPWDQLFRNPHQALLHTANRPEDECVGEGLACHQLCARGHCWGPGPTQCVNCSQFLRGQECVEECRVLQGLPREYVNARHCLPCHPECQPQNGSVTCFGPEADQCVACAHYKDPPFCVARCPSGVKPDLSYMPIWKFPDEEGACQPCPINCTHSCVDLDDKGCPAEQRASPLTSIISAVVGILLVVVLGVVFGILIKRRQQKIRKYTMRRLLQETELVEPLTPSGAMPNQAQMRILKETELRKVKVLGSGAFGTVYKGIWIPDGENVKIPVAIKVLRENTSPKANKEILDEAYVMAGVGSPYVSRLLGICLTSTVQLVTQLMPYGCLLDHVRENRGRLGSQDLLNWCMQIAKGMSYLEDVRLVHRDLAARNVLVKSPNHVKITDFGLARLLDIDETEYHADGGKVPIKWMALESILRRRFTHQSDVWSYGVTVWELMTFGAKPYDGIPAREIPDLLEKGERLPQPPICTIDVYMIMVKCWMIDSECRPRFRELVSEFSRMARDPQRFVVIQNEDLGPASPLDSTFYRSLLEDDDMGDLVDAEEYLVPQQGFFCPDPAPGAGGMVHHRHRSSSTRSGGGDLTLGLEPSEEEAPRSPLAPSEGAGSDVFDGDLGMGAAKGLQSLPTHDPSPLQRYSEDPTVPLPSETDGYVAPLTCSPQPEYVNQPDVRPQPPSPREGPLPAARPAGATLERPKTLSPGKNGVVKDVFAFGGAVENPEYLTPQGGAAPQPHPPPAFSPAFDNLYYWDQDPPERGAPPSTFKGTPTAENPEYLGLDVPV
From the text: as §1

| IC50 (TEC) [nM] | IC50 (HER4) [nM] | IC50 (TXK) [nM] | IC50 (EGFR) [nM] | IC50 (BLK) [nM] | IC50 (HER2) [nM] | Structure (SMILES) | IC50 ([1]; read-out: HepG2 IC50) [µM] | IC50 (human primary hepatocyte) [µM] | IC50 ([1]; another experiment, read-out: HepG2 IC50 (another experiment)) [µM] |
| --- | --- | --- | --- | --- | --- | --- | --- | --- | --- |
| 153 | > 1000 | > 1000 | > 1000 | > 1000 | > 1000 | C=CC(=O)Nc1cc(Nc2nc(-c3ccnc(N4CCn5c(cc6c5CC(C)(C)C6)C4=O)c3CO)cn(C)c2=O)ccc1N1CCN(C2CCOCC2)C[C@H]1C(F)(F)F [Example 48-S, N-(5-[[6-(2-[4,4-dimethyl-9-oxo-1,10-diazatricyclo[6.4.0.0^[2,6]]dodeca-2(6),7-dien-10-yl]-3-(hydroxymethyl)pyridin-4-yl)-4-methyl-3-oxopyrazin-2-yl]amino]-2-[(2S)-4-(oxan-4-yl)-2-(trifluoromethyl)piperazin-1-yl]phenyl)prop-2-enamide] | 64.5 | 40.9 |  |
| 686 | > 1000 | > 1000 | > 1000 | > 1000 | > 1000 | C=CC(=O)Nc1cc(Nc2nc(-c3ccnc(N4CCc5c(sc6c5CCCC6)C4=O)c3CO)cn(C)c2=O)ccc1N1CCN(C2CCOCC2)C[C@H]1C(F)(F)F [Example 55-S, N-[5-([6-[3-(hydroxymethyl)-2-[6-oxo-8-thia-5-azatricyclo[7.4.0.0^[2,7]]trideca-1(9), 2(7)-dien-5-yl]pyridin-4-yl]-4-methyl-3-oxopyrazin-2-yl]amino)-2-[(2S)-4-(oxan-4-yl)-2-(trifluoromethyl)piperazin-1-yl]phenyl]prop-2-enamide] | 197 | > 100 | > 200 |
| 0.67 | 3.1 | 0.48 | 268 | 3.1 | > 1000 | CC(C)(/C=C(\C#N)C(=O)N1CCC[C@@H](n2nc(-c3ccc(Oc4ccccc4)cc3F)c3c(N)ncnc32)C1)N1CCN(C2COC2)CC1 [PRN-1008, reference compound] | 39.6 | 23.5 |  |
